Each compound was assayed on A2780 (assay: Cellular A2780 viability assay (CellTiter-Glo, 72 hours)). Details: Homo sapiens.
Type: cell-based
Description: Human T-cell acute lymphoblastic leukemia cell line, MOLT-4 (ATCC, Cat #CRL-1582), Human multiple myeloma cell line, RPMI-8226 (Invitrogen, Cat #22400-089) and MM.1S (ATCC, Cat #CRL-2974), NSCLC (Non-small cell lung cancer) cell line H460 (ATCC, Cat #HTB-177), Human colon colorectal carcinoma cell line HCT116 (ATCC, Cat #CCL-247), Human acute monocytic leukemia cell line MV4-11 (ATCC, Cat #CRL-9591), OVCAR-3 (ATCC, Cat #HTB-161) and A2780 (ECACC, Cat #93112519) were obtained from ATCC. Cells were grown in RPMI-1640 media (Invitrogen, Cat #22400-089) supplemented with 10% FBS (Invitrogen, Cat #10099141) and 1% penicillin/streptomycin (Invitrogen, Cat #15070063) and cultured at 37° C., 5% CO2 in a humidified chamber. All cell lines were routinely tested for mycoplasma.
The effect of the CDK7 inhibitor to inhibit the growth of target cancer cells was evaluated through the 72 hours time period of viability assay. Briefly, the candidate cell line ware plated in 96 well plate at the following density of cells respectively. 1×10^4 cells/well for MOLT-4, RPMI-8226, MV4-11 and MM.1S, 5×10^3 for H460, HCT116 and OVCAR-3 and IX 10^3 for A2780. After 24 hours, the cells were treated with various concentrations of the compound (ranging from 0.0015 uM to 10 uM). DMSO solvent without compound served as a control and final DMSO concentration less than 0.1%. After 72 hours of incubation at 37° C., 5% CO2 incubator, cells were analyzed for the viability using the CellTiter-Glo Luminescent Cell Viability Assay (Promega, Cat #G7570). All viability assays were performed in duplicate and Luminescence was read using an Envision (Perkin Elmer, USA). Data was analyzed using XLfit software.

Row | IC50 | SMILES
1 | 1000 to 10000 nM | CC(C)c1cnn2c(NCc3ccccc3-c3ccc4ccccc4n3)nc(NC3CCC(O)CC3)nc12 (stereo not drawn) [Compound 270]
2 | > 10000 nM | CC(C)c1cnn2c(NCc3c(Cl)cccc3-c3ccc4ccccc4n3)nc(N3CCCC[C@H]3CCO)nc12 [Compound 262]
3 | ≤ 1000 nM | Cc1cn(-c2cccc(Cl)c2CNc2nc(N3CCC(N)CC3)nc3c(C(C)C)cnn23)nc1C(C)(C)O [Compound 256]

These compounds were tested on MV4-11 (assay: Cellular MV4-11 viability assay (CellTiter-Glo, 72 hours)). Details: Homo sapiens.
Type: cell-based
Method in brief: (§1)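 Cells were plated at line-specific densities and exposed to compound for 72 hours at 37 °C, 5% CO2, with DMSO-only wells as control (final DMSO below 0.1%). Viability was measured by CellTiter-Glo luminescence in duplicate.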

Row | IC50 | SMILES
4 | 1000 to 10000 nM | CC(C)c1cnn2c(NCc3ccccc3-c3ccc4ccccc4n3)nc(NC3CCC(O)CC3)nc12 (stereo not drawn) [Compound 270]
5 | > 10000 nM | CC(C)c1cnn2c(NCc3c(Cl)cccc3-c3ccc4ccccc4n3)nc(N3CCCC[C@H]3CCO)nc12 [Compound 262]
6 | < 1000 nM | Cc1cn(-c2cccc(Cl)c2CNc2nc(N3CCC(N)CC3)nc3c(C(C)C)cnn23)nc1C(C)(C)O [Compound 256]

Each compound was assayed against T1, CDK2/Cyclin A (Homo sapiens, UniProt P24941) (assay: Enzymatic assay for CDK2 (FRET based LANCE Ultra kinase assay)). Details: read-out: CDK2 enzymatic activity (IC50 activity range).
T1 construct: purchased Invitrogen PV6290
Type: biochemical
Method in brief: (§2)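 Each CDK complex ([…]) phosphorylated 68 nM ULight-MBP peptide with ATP at Km for 60 min at 23° C., against 8 compound doses (4-fold dilutions). EDTA/Eu-anti-phospho-MBP detection, 60 min, then TR-FRET emission at 615 and 665 nm.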

Row | IC50 | SMILES
7 | > 1000 nM | CC(C)c1cnn2c(NCc3ccccc3-c3ccc4ccccc4n3)nc(NC3CCC(O)CC3)nc12 (stereo not drawn) [Compound 270]
8 | > 1000 nM | CC(C)c1cnn2c(NCc3c(Cl)cccc3-c3ccc4ccccc4n3)nc(N3CCCC[C@H]3CCO)nc12 [Compound 262]
9 | > 1000 nM | Cc1cn(-c2cccc(Cl)c2CNc2nc(N3CCC(N)CC3)nc3c(C(C)C)cnn23)nc1C(C)(C)O [Compound 256]

These compounds were tested against T2, CDK7/Cyclin H/MNAT1 (Homo sapiens, UniProt P50613) (assay: Enzymatic assay for CDK7 (FRET based LANCE Ultra kinase assay)). Details: CDK1/CDK7.
T2 construct: purchased Invitrogen PR6749B
T2 sequence (P50613 whole entry): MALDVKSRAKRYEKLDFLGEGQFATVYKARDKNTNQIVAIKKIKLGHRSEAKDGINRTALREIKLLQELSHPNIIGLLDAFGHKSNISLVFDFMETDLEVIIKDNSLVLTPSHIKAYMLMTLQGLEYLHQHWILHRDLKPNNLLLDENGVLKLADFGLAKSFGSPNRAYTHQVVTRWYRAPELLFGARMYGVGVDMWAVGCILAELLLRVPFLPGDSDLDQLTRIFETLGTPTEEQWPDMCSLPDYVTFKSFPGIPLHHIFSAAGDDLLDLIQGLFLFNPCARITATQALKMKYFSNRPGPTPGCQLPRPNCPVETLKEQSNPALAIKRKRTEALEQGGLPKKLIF
T2 sequence (P51946 whole entry partner): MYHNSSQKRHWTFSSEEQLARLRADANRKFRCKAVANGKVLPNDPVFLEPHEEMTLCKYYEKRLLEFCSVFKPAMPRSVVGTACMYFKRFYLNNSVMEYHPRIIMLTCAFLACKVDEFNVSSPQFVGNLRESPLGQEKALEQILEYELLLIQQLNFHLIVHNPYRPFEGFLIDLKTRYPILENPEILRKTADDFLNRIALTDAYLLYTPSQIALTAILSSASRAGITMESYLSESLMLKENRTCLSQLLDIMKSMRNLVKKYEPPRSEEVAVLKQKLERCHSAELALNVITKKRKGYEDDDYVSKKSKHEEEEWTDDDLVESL
T2 sequence (P51948 whole entry partner): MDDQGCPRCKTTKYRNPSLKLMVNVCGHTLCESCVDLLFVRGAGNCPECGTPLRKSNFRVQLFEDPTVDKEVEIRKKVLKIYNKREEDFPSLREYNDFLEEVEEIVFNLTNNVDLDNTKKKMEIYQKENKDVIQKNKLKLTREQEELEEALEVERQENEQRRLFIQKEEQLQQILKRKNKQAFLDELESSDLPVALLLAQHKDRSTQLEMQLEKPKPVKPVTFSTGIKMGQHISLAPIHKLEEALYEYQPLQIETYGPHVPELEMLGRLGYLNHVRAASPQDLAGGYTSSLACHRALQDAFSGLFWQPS
Type: biochemical
Method in brief: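 LANCE Ultra TR-FRET kinase assay using a ULight-labeled peptide substrate and a Eu-labeled anti-phospho antibody, with ATP at its Km. Purified CDK/cyclin complex was added to compound after brief centrifugation.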

Row | CDK1/CDK7: Selectivity of CDK7 inhibition over CDK1 inhibition | SMILES
10 | A (A=greater than 200 fold) | CC(C)c1cnn2c(NCc3ccccc3-c3ccc4ccccc4n3)nc(NC3CCC(O)CC3)nc12 (stereo not drawn) [Compound 270]
11 | A (A=greater than 200 fold) | Cc1cn(-c2cccc(Cl)c2CNc2nc(N3CCC(N)CC3)nc3c(C(C)C)cnn23)nc1C(C)(C)O [Compound 256]

Row | SMILES | CDK1/CDK7: Selectivity of CDK7 inhibition over CDK1 inhibition
12 | CC(C)c1cnn2c(NCc3c(Cl)cccc3-c3ccc4ccccc4n3)nc(N3CCCC[C@H]3CCO)nc12 [Compound 262] | B (B=less than 200 fold, but greater than 20 fold)

Same assay, conditions: CDK2/CDK7

Row | CDK2/CDK7: Selectivity of CDK7 inhibition over CDK2 inhibition | SMILES
13 | A (A=greater than 200 fold) | CC(C)c1cnn2c(NCc3ccccc3-c3ccc4ccccc4n3)nc(NC3CCC(O)CC3)nc12 (stereo not drawn) [Compound 270]
14 | A (A=greater than 200 fold) | Cc1cn(-c2cccc(Cl)c2CNc2nc(N3CCC(N)CC3)nc3c(C(C)C)cnn23)nc1C(C)(C)O [Compound 256]

Row | SMILES | CDK2/CDK7: Selectivity of CDK7 inhibition over CDK2 inhibition
15 | CC(C)c1cnn2c(NCc3c(Cl)cccc3-c3ccc4ccccc4n3)nc(N3CCCC[C@H]3CCO)nc12 [Compound 262] | B (B=less than 200 fold, but greater than 20 fold)

Same assay, conditions: CDK5/CDK7

Row | CDK5/CDK7: Selectivity of CDK7 inhibition over CDK5 inhibition | SMILES
16 | A (A=greater than 200 fold) | CC(C)c1cnn2c(NCc3ccccc3-c3ccc4ccccc4n3)nc(NC3CCC(O)CC3)nc12 (stereo not drawn) [Compound 270]
17 | A (A=greater than 200 fold) | Cc1cn(-c2cccc(Cl)c2CNc2nc(N3CCC(N)CC3)nc3c(C(C)C)cnn23)nc1C(C)(C)O [Compound 256]

Row | SMILES | CDK5/CDK7: Selectivity of CDK7 inhibition over CDK5 inhibition
18 | CC(C)c1cnn2c(NCc3c(Cl)cccc3-c3ccc4ccccc4n3)nc(N3CCCC[C@H]3CCO)nc12 [Compound 262] | B (B=less than 200 fold, but greater than 20 fold)

Same assay, conditions: read-out: CDK7 enzymatic activity (IC50 activity range)

Row | IC50 | SMILES
19 | < 100 nM | CC(C)c1cnn2c(NCc3ccccc3-c3ccc4ccccc4n3)nc(NC3CCC(O)CC3)nc12 (stereo not drawn) [Compound 270]
20 | 100 to 1000 nM | CC(C)c1cnn2c(NCc3c(Cl)cccc3-c3ccc4ccccc4n3)nc(N3CCCC[C@H]3CCO)nc12 [Compound 262]
21 | < 100 nM | Cc1cn(-c2cccc(Cl)c2CNc2nc(N3CCC(N)CC3)nc3c(C(C)C)cnn23)nc1C(C)(C)O [Compound 256]

Each compound was assayed on H460 (assay: Cellular H460 viability assay (CellTiter-Glo, 72 hours)). Details: Homo sapiens, NCI-H460.
Type: cell-based
Method in brief: as §1

Row | IC50 | SMILES
22 | 1000 to 10000 nM | CC(C)c1cnn2c(NCc3ccccc3-c3ccc4ccccc4n3)nc(NC3CCC(O)CC3)nc12 (stereo not drawn) [Compound 270]
23 | > 10000 nM | CC(C)c1cnn2c(NCc3c(Cl)cccc3-c3ccc4ccccc4n3)nc(N3CCCC[C@H]3CCO)nc12 [Compound 262]
24 | < 1000 nM | Cc1cn(-c2cccc(Cl)c2CNc2nc(N3CCC(N)CC3)nc3c(C(C)C)cnn23)nc1C(C)(C)O [Compound 256]

Each compound was assayed against T3, CDK5/p25 (Homo sapiens, UniProt Q00535) (assay: Enzymatic assay for CDK5 (FRET based LANCE Ultra kinase assay)). Details: read-out: CDK5 enzymatic activity (IC50 activity range).
T3 construct: purchased Invitrogen PR8543B
T3 sequence (Q00535 whole entry): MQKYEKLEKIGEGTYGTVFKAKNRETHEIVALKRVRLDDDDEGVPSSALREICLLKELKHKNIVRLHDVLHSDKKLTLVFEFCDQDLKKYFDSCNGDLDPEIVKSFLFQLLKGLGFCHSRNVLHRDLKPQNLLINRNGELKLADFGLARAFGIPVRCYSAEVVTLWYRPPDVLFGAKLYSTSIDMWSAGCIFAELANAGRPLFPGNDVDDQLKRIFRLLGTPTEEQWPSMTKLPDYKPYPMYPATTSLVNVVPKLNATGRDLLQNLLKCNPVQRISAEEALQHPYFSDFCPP
T3 sequence (Q15078 99-307 partner limits assumed): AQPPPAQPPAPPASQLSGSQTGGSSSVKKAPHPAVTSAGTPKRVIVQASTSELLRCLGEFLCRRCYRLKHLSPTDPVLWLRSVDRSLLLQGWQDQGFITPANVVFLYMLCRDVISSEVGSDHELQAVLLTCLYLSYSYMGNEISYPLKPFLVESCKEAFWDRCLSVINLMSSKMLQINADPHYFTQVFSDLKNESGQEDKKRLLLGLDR
Type: biochemical
Method in brief: as §2

Row | IC50 | SMILES
25 | > 1000 nM | CC(C)c1cnn2c(NCc3ccccc3-c3ccc4ccccc4n3)nc(NC3CCC(O)CC3)nc12 (stereo not drawn) [Compound 270]
26 | > 1000 nM | CC(C)c1cnn2c(NCc3c(Cl)cccc3-c3ccc4ccccc4n3)nc(N3CCCC[C@H]3CCO)nc12 [Compound 262]
27 | > 1000 nM | Cc1cn(-c2cccc(Cl)c2CNc2nc(N3CCC(N)CC3)nc3c(C(C)C)cnn23)nc1C(C)(C)O [Compound 256]

Each compound was assayed against T4, CDK1/Cyclin B (Homo sapiens, UniProt P06493) (assay: Enzymatic assay for CDK1 (FRET based LANCE Ultra kinase assay)). Details: read-out: CDK1 enzymatic activity (IC50 activity range).
T4 construct: purchased Invitrogen PR4768C
T4 sequence (P06493 whole entry): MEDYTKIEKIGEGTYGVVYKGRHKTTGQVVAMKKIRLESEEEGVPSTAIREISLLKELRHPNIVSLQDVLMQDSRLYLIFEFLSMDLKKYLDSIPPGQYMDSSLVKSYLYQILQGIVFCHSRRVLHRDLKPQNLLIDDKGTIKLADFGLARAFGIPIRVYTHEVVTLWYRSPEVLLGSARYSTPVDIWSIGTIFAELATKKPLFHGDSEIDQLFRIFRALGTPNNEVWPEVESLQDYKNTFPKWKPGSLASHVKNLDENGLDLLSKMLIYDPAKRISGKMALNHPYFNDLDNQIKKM
T4 sequence (P14635 whole entry partner): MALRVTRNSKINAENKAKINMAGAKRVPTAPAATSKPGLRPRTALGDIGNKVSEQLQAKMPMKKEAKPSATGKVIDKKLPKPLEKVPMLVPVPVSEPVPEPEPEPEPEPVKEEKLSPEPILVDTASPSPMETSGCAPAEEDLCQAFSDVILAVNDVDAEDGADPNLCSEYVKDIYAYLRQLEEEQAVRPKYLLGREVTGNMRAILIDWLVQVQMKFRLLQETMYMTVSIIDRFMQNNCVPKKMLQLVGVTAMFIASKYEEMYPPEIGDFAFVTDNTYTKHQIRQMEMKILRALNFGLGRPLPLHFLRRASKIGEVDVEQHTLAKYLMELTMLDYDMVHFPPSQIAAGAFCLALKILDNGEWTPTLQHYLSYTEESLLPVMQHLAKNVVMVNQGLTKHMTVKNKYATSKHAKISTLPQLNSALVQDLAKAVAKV
Type: biochemical
Method in brief: as §2

Row | IC50 | SMILES
28 | > 1000 nM | CC(C)c1cnn2c(NCc3ccccc3-c3ccc4ccccc4n3)nc(NC3CCC(O)CC3)nc12 (stereo not drawn) [Compound 270]
29 | > 1000 nM | CC(C)c1cnn2c(NCc3c(Cl)cccc3-c3ccc4ccccc4n3)nc(N3CCCC[C@H]3CCO)nc12 [Compound 262]
30 | > 1000 nM | Cc1cn(-c2cccc(Cl)c2CNc2nc(N3CCC(N)CC3)nc3c(C(C)C)cnn23)nc1C(C)(C)O [Compound 256]

Reference: patent US11945822B2, “Pyrazolo-triazine and/or pyrazolo-pxrimidine derivatives as selective inhibitor of cyclin dependent kinase” (QURIENT CO., LTD., priority 2018, dated 2024)
